Results published in PubChem BioAssay AID2742 (NMMLSC, 2010).
Several values for one entry are separate records, joined by “and”; a condition that tells them apart may be missing. Identical values can stand only once. Activity calls are given as the source filed them.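 The calls were made as follows: active = fitted half-maximal concentration for changing background-corrected GFP signal at or below a set limit; inactive = the rest.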

Assay: modulators of MEP2-GFP levels in yeast, dose response, S. cerevisiae, flow cytometry GFP, MLPCN hits (AID 2742);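 also: GFP tag reports level of MEP2 protein as a downstream target of TOR signalling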
Conditions: S. cerevisiae MEP2-GFP strain, flow cytometry fluorescence, 3 h; at 33 µM (top of the series)

SMILES | GFP fluorescence (kMESF), higher = increase
O=C(CS(=O)c1ccccc1[N+](=O)[O-])Oc1ccc(Br)cc1 (stereo not drawn) | 4.43 kMESF (inactive)
COc1ccc2c(/C=C/c3cc[n+](C)cc3)c[nH]c2c1 | 4.86 kMESF (inactive)
CCc1ccc2c(c1)/C(=C/C(=O)c1cccs1)C(=O)N2 | 3.95 kMESF (inactive)
O=[N+]([O-])c1cnc(Sc2ccncn2)s1 | 3.07 kMESF (inactive)
O=C1ON=C(c2ccccc2)/C1=C\c1ccco1 | 4.59 kMESF (inactive)
O=C(/C=C/c1ccc(F)cc1)NC(=S)NNC(=O)c1cnccn1 | 4.9 kMESF (inactive)
O=C(COc1ccccc1)NNC(=S)NC(=O)c1ccccc1 | 2.59 kMESF (inactive)
O=C(CCc1ccccc1)NNC(=S)NC(=O)c1ccccc1 | 5.56 kMESF (inactive)
NC(=O)COc1ccc(C(=O)/C=C2/C(=O)Nc3ccccc32)cc1 | 3.66 kMESF (inactive)
CCN(CC(=O)NC(C)(C)C)C(=O)COc1c(Cl)cc(Cl)c2ccc(C)nc12 | 6.41 kMESF (inactive)
Cc1ccc(C(=O)Oc2oc(-c3ccco3)nc2C=Nc2ccc(Cl)cc2)cc1 | 3.92 kMESF (inactive)
Nc1ccccc1SC(C[N+](=O)[O-])c1ccccc1 (stereo not drawn) | 3.67 kMESF (inactive)
CN1CCN(C(=O)c2cc(COc3c(F)cccc3F)on2)CC1c1ccccc1 (stereo not drawn) | 5.87 kMESF (inactive)
CC(=O)Oc1cccc(N2C(=O)c3cccc4c([N+](=O)[O-])ccc(c34)C2=O)c1 | 7.84 kMESF (inactive)
C=CCN1C(=O)/C(=C/c2ccc(-c3ccc(F)cc3)o2)SC1=S | 8.29 kMESF (inactive)
Cn1c(=O)c(C(=O)NNC(=O)c2ccc(Br)cc2)c(O)c2ccccc21 | 3.4 kMESF (inactive)
Cc1ccc(S(=O)(=O)ON2C(=O)c3ccccc3C2=O)c(C)c1 | 5.06 kMESF (inactive)
CCCOc1ccc(C(=O)NNC(=S)NC(=O)CC)cc1 | 4.12 kMESF (inactive)
Nc1nc2ncc(CNc3ccc(C(=O)N[C@@H](CCC(=O)O)C(=O)O)cc3)nc2c(=O)[nH]1 | 1.95 kMESF (inactive)
O=C(Oc1c(Cl)cc(Cl)c2cccnc12)c1ccco1 | 9.81 kMESF (inactive)
C#CCOc1c(Br)cc(/C=C2/C(=O)ON=C2C)cc1OC | 3.64 kMESF (inactive)

SMILES | GFP fluorescence (kMESF), higher = increase
O=C(/C=C/c1ccccc1Cl)c1ccccc(=O)c1O | -0.57 kMESF (inactive)
Oc1c(Br)cc(Br)cc1C=Nc1ccc2c(c1)OCO2 | 5.35 kMESF (inactive)
N/C(=N\OC(=O)c1ccccc1Cl)c1ccc(Cl)cc1 | 3.91 kMESF (inactive)
O=C1C2C3C=CC(CO)(O3)C2C(=O)N1c1ccccc1-c1ccccc1 (stereo not drawn) | 5.17 kMESF (inactive)
N#C/C(=C\c1ccccn1)c1nc2ccccc2s1 | 58.7 kMESF (inactive)
Cc1[nH][nH]c(=O)c1C(c1ccc(-c2ccc(Cl)c(Cl)c2)o1)c1c(C)[nH][nH]c1=O | 4.42 kMESF (inactive)
C[C@@]12C(=O)OC(=O)[C@]1(C)C1CCC2O1 | 3.51 kMESF (inactive)
Cc1cc(/C=C2/SC(=S)N(c3cccc(Cl)c3)C2=O)c(C)n1-c1cccnc1 | 8.22 kMESF (inactive)
CC(C)(C)C1C/C(=C/c2ccccn2)C(=O)/C(=C/c2ccccn2)C1 (stereo not drawn) | 2.67 kMESF (inactive)
O=C(NC(=S)NNC(=O)c1ccc(Cl)cc1Cl)c1cccnc1 | 1.66 kMESF (inactive)
COc1ccc(C2(C)ON(c3ccccc3C(F)(F)F)C2=O)cc1 (stereo not drawn) | 2.87 kMESF (inactive)
CC(=O)N(C1=C(Cl)C(=O)c2ccccc2C1=O)C1CCCCC1 | -3.41 kMESF (inactive)
O=[N+]([O-])c1cc(Cl)c2cccnc2c1O | 5.35 kMESF (inactive)
O=C(COc1ccccc1)NNC(=S)NC(=O)c1ccc(Cl)cc1Cl | 4.07 kMESF (inactive)
COc1ccc(NC(=O)/C(Cl)=C(/Cl)S(=O)Cc2ccccc2)cn1 (stereo not drawn) | 4.75 kMESF (inactive)
O=c1[nH]c(-c2ccc(Cl)cc2)cs1 | 1.62 kMESF (inactive)
CCOC(=O)Cn1cc(/C=C/[N+](=O)[O-])c2ccccc21 | 4.22 kMESF (inactive)
O=C(NC(=S)NNC(=O)[C@H]1C[C@@H]1c1ccccc1)c1cccc(F)c1 | 7.02 kMESF (inactive)
O=C(OCC(=O)N1CCN(C(=O)c2ccco2)CC1)c1cc(-c2ccc(F)cc2)nc2ccccc12 | 4.46 kMESF (inactive) and 3.18 kMESF (inactive)
COc1ccc(Cl)cc1C(Nc1cccnc1)c1ccc2cccnc2c1O (stereo not drawn) | 5.91 kMESF (inactive)
COc1cccc(N=Nc2ccc(O)c3ncccc23)c1 | 5.8 kMESF (inactive)

SMILES | GFP fluorescence (kMESF), higher = increase
O=C(Oc1oc(-c2ccco2)nc1C=Nc1ccc(Cl)cc1)c1ccco1 | 3.6 kMESF (inactive)
COc1ccc(N2C(=O)C(Cl)=C(NCc3ccccc3)C2=O)cc1 | 3.91 kMESF (inactive)
Cc1nn(C)c(C)c1N1C(=O)c2cccc3c(Br)ccc(c23)C1=O | 3.61 kMESF (inactive)
COc1cccc(/C=C2\SC(=S)N(CCCC(=O)Nc3ccc(C(=O)O)cc3)C2=O)c1 | 1.55 kMESF (inactive)
O=C(Nc1nc(-c2ccccn2)cs1)c1cc2ccccc2o1 | 5.47 kMESF (inactive)
O=C(Nc1cccc(-c2csc(Nc3ccccc3)n2)c1)c1ccccc1 | 2.61 kMESF (inactive)
Cc1cc(C)c2c(c1)/C(=C/C(=O)c1ccc(Br)s1)C(=O)N2 | 3.51 kMESF (inactive)
O=C1c2ccccc2C(=O)N1OS(=O)(=O)c1ccc(F)cc1 | 3.26 kMESF (inactive)
Cc1ccc2[nH]c(C)c(/C=C/c3cc[n+](C)cc3)c2c1 | 4.54 kMESF (inactive)
O=c1cc(CSc2ccc(Cl)cc2)nc(-c2ccccn2)[nH]1 | 3.46 kMESF (inactive)
O=C1N(c2ccccc2C(F)(F)F)O[C@]1(c1ccccc1)C1CCCCC1 | 3.28 kMESF (inactive)
CCc1cc(C(=O)Nc2nc(-c3ccccn3)cs2)sc1C | 6.18 kMESF (inactive)
CC(=O)n1cc(C(C[N+](=O)[O-])SCCN)c2ccccc21 (stereo not drawn) | 3.64 kMESF (inactive)
Cc1ccc(C(=O)NNC(=S)NC(=O)COc2ccccc2)cc1 | 6.29 kMESF (inactive)
CC(OC(=O)c1ccco1)C(=O)Nc1nc(-c2ccccc2)cs1 (stereo not drawn) | 2.67 kMESF (inactive)
Oc1ccc2ccccc2c1/C=N/Nc1nnc(-c2ncc[nH]2)c2ccccc12 | -21.2 kMESF (inactive)
Cc1ccc(NC(=O)ON=C2CCCC2)cc1 | 3.26 kMESF (inactive)
COc1ccc(NC2=C(Cl)C(=O)N(CCc3ccccc3)C2=O)c(OC)c1 | 1.67 kMESF (inactive)
Cc1ccc(NC(=O)c2cc(N3C(=O)C=CC3=O)ccc2Cl)cc1C | 5.17 kMESF (inactive)
Oc1c(I)cc(Cl)c2cccnc12 | 5.67 kMESF (inactive)
O=C(C#Cc1cccc([N+](=O)[O-])c1)c1ccccc1 | 3.98 kMESF (inactive)

SMILES | GFP fluorescence (kMESF), higher = increase
COc1ccc([N+](=O)[O-])c(S(=O)(=O)c2ccc(Cl)cc2)n1 | 4.42 kMESF (inactive)
CCOC(=O)CS(=O)(=O)c1nc(-c2ccccc2)cc(C(F)(F)F)n1 | 6.41 kMESF (inactive)
Cc1cccc2c1NC(=O)/C2=C\C(=O)c1cccs1 | 4.26 kMESF (inactive)
O=C1Nc2ccccc2/C1=C\C(=O)c1ccccc1 | 5.08 kMESF (inactive)
CC1=C(C)/C(=N\OS(=O)(=O)c2ccccc2)C=CC1=O | 4.84 kMESF (inactive)
COc1ccccc1[C@]1(C)ON(c2ccccc2C(F)(F)F)C1=O | 5.08 kMESF (inactive)
O=c1c2sc(-c3ccccc3)cc2nc2n1CCC2 | 3.03 kMESF (inactive)
COc1ccc(/C=C2/C(=O)ON=C2c2ccccc2)cc1OC | 4.51 kMESF (inactive)
Cc1ccc(/C(N)=N/OC(=O)c2ccc(F)cc2)cc1 | 2.2 kMESF (inactive)
CCc1ccc(C(=O)/C=C/c2ccc([N+](=O)[O-])o2)cc1 | 6.79 kMESF (inactive)
COc1ccc(CCNC2=C(Cl)C(=O)N(CCc3ccc(OC)c(OC)c3)C2=O)cc1OC | 2.9 kMESF (inactive)
CN(C)c1ccc(N=Cc2nc(-c3ccccc3)oc2OC(=O)c2cccc(Cl)c2)cc1 | 3.27 kMESF (inactive)
O=C1ON=C(c2ccc(Cl)cc2)/C1=C/c1ccc(O)cc1 | 3.61 kMESF (inactive)
C#CCOCCOCCOCCNc1nc(N2CCN(C(=O)CCCCCCCCCCNC(=O)[C@H](CCCCN)n3cc(CCCC(=O)O)nn3)CC2)nc(N2CCN(C(=O)CCCCCCCCCCNC(=O)[C@H](CCCN=C(N)N)n3cc(C[C@@H](C)CC)nn3)CC2)n1 | 3.78 kMESF (inactive)
CC1(C)OC(c2ccccc2)=C/C(=C/C=C2C(=O)NC(=S)NC2=O)O1 | 2.7 kMESF (inactive)
O=c1c2cc(Cl)ccc2nc(-c2ccc([N+](=O)[O-])cc2)n1O | 4.58 kMESF (inactive)
Cc1ccc(S(=O)(=O)N2CC(C(=O)O)=CC[C@H]2c2ccc(Cl)cc2)cc1 | 3.69 kMESF (inactive)
Cc1cc(NC(=O)c2cccnc2Cl)ccc1NC(=O)c1cc2ccccc2o1 | 3.21 kMESF (inactive)
Cc1ccc(-c2nc(N)c3c(-c4ccc(C)cc4)nn(C(C)(C)C)c3n2)cc1 | 1.65 kMESF (inactive)
O=C(Nc1ccc(O)cc1)C1CCCN1S(=O)(=O)c1ccc(F)cc1 (stereo not drawn) | 1.62 kMESF (inactive)
